Data on 12 compounds can be found in patent publication US20260335450A1, “TARGETED PROTEIN DEGRADATION THROUGH SITE-SPECIFIC RECRUITMENT OF UBIQUITIN LIGASE” (University of Pittsburgh - Of the Commonwealth System of …, priority 2023, published 2026).

Read-outs that look alike come from different tables or passages of the source. Residues, ends and D or L forms follow the SMILES beside them. *: point of attachment. Cbz = O=C(OCc1ccccc1)*

Experiment [1] deals with MKP3. Particulars: cited from earlier work.
Experiment [2] relates to DUSP1. The conditions noted are these: cited from earlier work.
Experiment [3] concerns mCherry-EGFP-Y151TetF. The experiment in a line: Degradation mechanism: proteasome inhibitor pre-treatment. Particulars: 10 μM inhibitor, 4 h pre-incubation; then 10 μM sTCO-PEG2-CRBN overnight. In kind it is cell-based. The method, then: FIGS. 16A-16B. Degradation mechanism of sTCO-PEG2-CRBN. FIG. 16A) The degradation of mCherry-EGFP-Y151TetF was reduced when cells were pre-treated with proteasome inhibitor MG132 or epoxomicin, validating that sTCO-PEG2-CRBN induced degradation is mediated by the proteasome.
For mechanistic insight into sTCO-PEG2-CRBN degradation (FIG. 16) cells were transfected as described above. A 10 μM working solution of media containing either MG132 or epoxomicin was made by adding 1 μL of the respective proteasome inhibitor (10 mM in DMSO) into 999 μL of complete medium. Following removal of TetF, 200 μL of media supplemented with either MG132, epoxomicin, or DMSO was added to each well and the cells were incubated for 4 h. Next, a solution containing 50 μM of sTCO-PEG2-CRBN was made by adding 5 μL of sTCO-PEG2-CRBN (10 mM in DMSO) into 995 μL of complete medium. Following the allotted time for proteasome inhibitor incubation, 50 μL of 50 μM sTCO-PEG2-CRBN was added directly to each well, for a final volume of 250 μL and final concentration of 10 μM of sTCO-PEG2-CRBN. The cells were then incubated overnight at 37° C. with 5% CO2 before lysis and western blot analysis.

Experiment [4] concerns mCherry-EGFP-Y151TetF. The experiment in a line: Degradation mechanism: thalidomide-OH pretreatment, cereblon-mediated degradation. In kind it is cell-based. The conditions noted are these: pretreatment with 100 µM of Thal-OH, then sTCO-PEG2-CRBN.
The conditions of experiment [5]: cited from earlier work.
Experiment [6] concerns mCherry-EGFP-G134TetF. As to the kind of experiment: In cellulo bioconjugation quantified with sTCO-CA and HaloTag. In kind it is cell-based. Particulars: sTCO-CA then HaloTag. The protocol: (§1) FIGS. 1A-1B. Experimental workflow for the quantification of bioconjugation to UAA-bearing proteins expressed in cells. Following expression of the POI bearing a UAA at any surface position (e.g., A-E), the FIG. 1A) sTCO-chloroalkane ligand or FIG. 1B) sTCO-E3 ligase ligand, is added to the media and undergoes a selective bioconjugation with the UAA. Excess ligand is washed away and cells are FIG. 1A) lysed or FIG. 1B) incubated with sTCO-chloroalkane then lysed. The lysate is incubated with HaloTag protein and the bioconjugation is quantified via western blot.
(§2) Before comparing the degradation of different mCherry-EGFP mutants, validating the extent of bioconjugation to TetF at each position was required. A method for quantifying in cellulo protein bioconjugation that utilizes a strained trans-cyclooctene chloroalkane (sTCO-CA) to react with TetF and subsequently dimerize with the self-labeling enzyme, HaloTag, was previously […]. Using this technique, the extent of bioconjugation mCherry-EGFP-I129TetF (~90%) and mCherry-EGFP-G134TetF (~55%, FIG. 4D) was quantified. Bioconjugation to two new mCherry-EGFP-TetF mutants using the same method was also quantified (FIG. 7). […] By determining the extent of bioconjugation to TetF mutants across the surface of mCherry-EGFP, variations in degradation due to incomplete bioconjugation could be evaluated. […]

The test system of experiment [7] is mCherry-EGFP-I129TetF. The experiment is described as above. The conditions noted are these: sTCO-CA then HaloTag. The class given is cell-based. The method, then:
as §1, §2

As to `O=C1C(=Cc2ccccc2)C(NC2CCCCC2)c2ccccc21` (stereo not drawn) [BCI], in experiment [1], the “inhibition of MKP3” value is listed as “known allosteric inhibitor”. Besides, the “inhibition of DUSP1” value in experiment [2] was “inhibits DUSP1”. For the compound `CC(C)C[C@@H](C=O)NC(=O)[C@H](CC(C)C)NC(=O)[C@H](CC(C)C)NC(=O)OCc1ccccc1` [MG132] (Cbz-Leu-Leu-Leu-aldehyde), in experiment [3], the “effect of proteasome inhibitor pre-treatment on sTCO-PEG2-CRBN induced degradation” value is “reduced”. Take `O=C1CCC(N2C(=O)c3cccc(O)c3C2=O)C(=O)N1` (stereo not drawn) [Thal-OH, thalidomide-OH]: the “effect of thalidomide-OH pretreatment on sTCO-PEG2-CRBN degradation” value in experiment [4] is listed as “reduced degradation”. With `OC1CC/C=C\CCC1` (stereo not drawn) [a], the Second-order rate constant in experiment [5] (Aqueous solvent, ax iso) is 80200 M⁻¹ s⁻¹; in experiment [5] (Aqueous solvent, eq iso) it was 22600 M⁻¹ s⁻¹; in experiment [5] (Mixture (Org water) 90:10) it was 2000 (90:10)^Ref 5 M^−1s^−1; in experiment [5] (Organic solvent), 1140^Ref 5 M^−1s^−1.

Turning to `OCC1[C@@H]2C/C=C\CCC[C@@H]12` (stereo partly drawn) [b], the Second-order rate constant in experiment [5] (Aqueous solvent) is reported as 3300000^Ref 2 M^−1s^−1; in experiment [5] (Organic solvent) it was 22000^Ref 3 M^−1s^−1.

Turning to `OCC1O[C@H]2C/C=C\CCC[C@H]2O1` (stereo partly drawn) [c], the Second-order rate constant is 318000 M⁻¹ s⁻¹ in experiment [5] (Aqueous solvent, anti iso); 366000 M⁻¹ s⁻¹ in experiment [5] (Aqueous solvent, syn iso); 167000 (55:45)^Ref 3 M^−1s^−1 in experiment [5] (Mixture (Org water) 55:45).

With `OCC1[C@@H]2CCC#CCC[C@@H]12` (stereo partly drawn) [d], the Second-order rate constant is 1245 (55:45)^Ref 6 M^−1s^−1 in experiment [5] (Mixture (Org water) 55:45) and 45^Ref 4 M^−1s^−1 in experiment [5] (Organic solvent). With `CC[C@H](C)[C@H](NC(=O)[C@H]([C@@H](C)CC)N(C)C(C)=O)C(=O)N[C@H](C(=O)N[C@@H](CC(C)C)C(=O)[C@@]1(C)CO1)[C@@H](C)O` [epoxomicin], the “effect of proteasome inhibitor pre-treatment on sTCO-PEG2-CRBN induced degradation” value in experiment [3] is on record as “reduced”. Consider `O=C(O)CC1CC2C=CC1C2` (stereo not drawn) [h], for which the Second-order rate constant in experiment [5] (Aqueous solvent) is given as 1.9^Ref 9 M^−1s^−1. With `C=Cc1ccccc1` [j], in experiment [5] (Mixture (Org water) 50:50), the Second-order rate constant is on record as 0.05 (50:50)^Ref 11 M^−1s^−1. With `C=CCSC[C@H](N)C(=O)O` [m], in experiment [5] (Mixture (Org water) 50:50), the Second-order rate constant is 0.002 (50:50)^Ref 13 M^−1s^−1. `O=C(NCCOCCOCCCCCCCl)OCC1C2CC/C=C/CCC21` (stereo not drawn) [sTCO-CA]: the extent of bioconjugation in experiment [6] is reported as ~ 55%; in experiment [7], ~ 90%.
